In patent US20220257491A1, “Prebiotic Oral Care Compositions and Methods” (Colgate-Palmolive Company, priority 2021, published 2022):
Marks after values point to notes of the source that are not given here.

Columns and labels:
Format in all cases: cell-based
A. viscosus = assay: Multi-species biofilm composition: absolute abundance of A. viscosus; details: mean±SD n=3
Procedure: (§1) Biofilms are grown vertically on Calcium Deficient Hydroxyapatite (CAD-HA) disks (Hitemco Medical, Old Bethpage, USA) using the Amsterdam Active Adhesion model. Biofilms are allowed to establish during 24 h (37° C., 170 rpm) under micro-aerophilic conditions (6% O2, 7% CO2, 7% H2, 80% N2). After this 24 h, disks are rinsed 3 times a day for 3 minutes (RT, 250 rpm), for 3 consecutive days, by transferring the lid containing the disks to a new 24-well plate containing 2 mL/well of the appropriate substrate solution. As a negative control, PBS (pH 5.7) without substrate supplementation is used. After each rinsing step, disks are shortly dip-rinsed in a new 24-well plate containing fresh modified BHI medium (2 mL/well) to remove remaining substrate traces. Subsequently, the lid is transferred to another 24-well plate containing fresh modified BHI medium (2 mL/well), followed by incubation (micro-aerophilic, 37° C., 170 rpm) until the next rinsing step.
(§2) NADM, N-acetyl-D-glucosamine (“NADG”) and D-(+)-mannose are selected to determine their effects on multi-species biofilm composition. […] decrease in absolute numbers in at least four of the pathogenic bacterial species tested in the assay, compared to the control, the results of which are described in Table 1 below. Absolute abundances of bacterial species are shown as mean±SD (n=3) logarithmic values of the genome equivalents per millilitre (log(Geq/mL)).

[1] = tested on: human oral keratinocytes (HOK-18A); assay: IL-8 levels in supernatants of keratinocyte cultures exposed to substrate-treated biofilms; details: mean±SD n=3
Procedure: Cultures of immortalized human oral keratinocytes (HOK-18A) are grown. The relative inflammatory potential of the substrate-treated multi-species biofilms is evaluated by analyzing the expression of five inflammatory mediator genes in human oral keratinocytes (HOKs) exposed to the substrate-treated biofilms. […] The IL-8 levels in the cellular supernatant are determined as well. RNA is converted to cDNA and relative expression of inflammatory mediator genes is determined as described above with respect to the cellular housekeeping gene (3-actin.
Table 7: IL-8 levels detected in the supernatants of human oral keratinocytes (HOK-18A) cultures exposed to substrate-treated multi-species biofilms are shown as mean±SD (n=3) values (pg/mL). All substrates are dissolved in PBS at a concentration of 1 M (upper part) or 1% (w/v) (lower part). Values between 0 and 1 represent relative downregulation, values >1 represent relative upregulation. […] For such values, statistically significant differences between two experimental conditions are marked with ‘#1’ (vs. NADM), ‘#2’ (vs. NADG), ‘#3’ (vs. D-(+)-mannose) (P<0.05).

[2] = tested on: P. gingivalis virulence genes; assay: Multi-species biofilm virulence gene expression, SYBR RT-qPCR: P. gingivalis; details: for Fold Change in virulence gene expression: fimA / Fold Change in virulence gene expression: kgp / Fold Change in virulence gene expression: partC / Fold Change in virulence gene expression: rgpA: relative to control, 2^-ΔΔCt, geometric mean n=3
Procedure: as §1
(§3) The expression of 33 virulence genes from 4 periodontal pathogens is analysed to evaluate the relative virulence of the substrate-treated biofilms. For all three substrates, virulence gene expression is determined relatively to the control, and these values are also compared between substrates when this is relevant (Tables 5a-5d).

S. oralis = assay: Multi-species biofilm composition: absolute abundance of S. oralis; details: for Absolute abundance S. oralis: mean±SD n=3
Procedure: as §1, §2

F. nucleatum = assay: Multi-species biofilm composition: absolute abundance of F. nucleatum; details: mean±SD n=3
Procedure: as §1, §2

S. sanguinis = assay: Multi-species biofilm composition: absolute abundance of S. sanguinis; details: mean±SD n=3
Procedure: as §1, §2

[3] = tested on: F. nucleatum virulence genes; assay: Multi-species biofilm virulence gene expression, SYBR RT-qPCR: F. nucleatum; details: for Fold Change in virulence gene expression: ABC transp. perm. / Fold Change in virulence gene expression: EF-G / Fold Change in virulence gene expression: but.-coA transf. / Fold Change in virulence gene expression: hemin receptor / Fold Change in virulence gene expression: hemolysin / Fold Change in virulence gene expression: ompA / Fold Change in virulence gene expression: transposase: relative to control (=1), 2^-ΔΔCt, geometric mean n=3
Procedure: as §1, §3

S. sobrinus = assay: Multi-species biofilm composition: absolute abundance of S. sobrinus; details: mean±SD n=3
Procedure: as §1, §2

A. actinomycetemcomitans = assay: Multi-species biofilm composition: absolute abundance of A. actinomycetemcomitans; details: mean±SD n=3
Procedure: as §1, §2

V. parvula = assay: Multi-species biofilm composition: absolute abundance of V. parvula; details: mean±SD n=3
Procedure: as §1
NADM, N-acetyl-D-glucosamine (“NADG”) and D-(+)-mannose are selected to determine their effects on multi-species biofilm composition. Repeated rinsing of the biofilms with the substrates at a concentration of 1M results in a significant decrease in absolute numbers in at least four of the pathogenic bacterial species tested in the assay, compared to the control, the results of which are described in Table 1 below. Absolute abundances of bacterial species are shown as mean±SD (n=3) logarithmic values of the genome equivalents per millilitre (log(Geq/mL)).

[4] = tested on: A. actinomycetemcomitans virulence genes; assay: Multi-species biofilm virulence gene expression, SYBR RT-qPCR: A. actinomycetemcomitans; details: for Fold Change in virulence gene expression: aae / Fold Change in virulence gene expression: apaH / Fold Change in virulence gene expression: cdtB / Fold Change in virulence gene expression: emaA / Fold Change in virulence gene expression: flp / Fold Change in virulence gene expression: ltxA / Fold Change in virulence gene expression: omp29 / Fold Change in virulence gene expression: omp100 / Fold Change in virulence gene expression: orf859 / Fold Change in virulence gene expression: pgA / Fold Change in virulence gene expression: vapA / Fold Change in virulence gene expression: vppA: relative to control (=1), 2^-ΔΔCt, geometric mean n=3
Procedure: as §1, §3

S. mitis = assay: Multi-species biofilm composition: absolute abundance of S. mitis; details: mean±SD n=3
Procedure: as §1, §2

CC(=O)N[C@H]1C(O)O[C@H](CO)[C@@H](O)[C@@H]1O (stereo partly drawn) [NADG, N-acetyl-D-glucosamine, reference compound]
Absolute abundance Av (A. viscosus) (A. viscosus; substrate 1%(w/v) in PBS): 7.83 ± 0.31 log(Geq/mL) | Absolute abundance Av (A. viscosus) (A. viscosus; substrate 1 M in PBS): 6.92 ± 0.45 log(Geq/mL) | IL-8 levels in supernatants of HOK-18A cultures ([1]; biofilm rinsed with substrate 1%(w/v)): 54.75 ± 11.66 pg/mL | IL-8 levels in supernatants of HOK-18A cultures ([1]; biofilm rinsed with substrate 1M): 0.22 ± 0.32 pg/mL | P. gingivalis partC expression decrease ([2]; substrate 1%(w/v)): 2.8 fold | Fold Change in virulence gene expression: fimA ([2]; substrate 1%): 1.15 fold | Fold Change in virulence gene expression: kgp ([2]; substrate 1%): 1.81 fold | Fold Change in virulence gene expression: partC ([2]; substrate 1%): 0.36 fold | Fold Change in virulence gene expression: rgpA ([2]; substrate 1%): 1.31 fold | Fold Change in virulence gene expression: fimA ([2]; substrate 1M): 0.79 fold | Fold Change in virulence gene expression: kgp ([2]; substrate 1M): 0.07 fold | Fold Change in virulence gene expression: partC ([2]; substrate 1M): 0.19 fold | Fold Change in virulence gene expression: rgpA ([2]; substrate 1M): 0.39 fold | Absolute abundance S. oralis (S. oralis; substrate 1%(w/v) in PBS): 7.11 ± 0.14 log(Geq/mL) | Change in S. oralis numbers compared to the control (S. oralis; substrate 1 M): +1.0 log(Geq/mL) | Absolute abundance S. oralis (S. oralis; substrate 1 M in PBS): 7.97 ± 0.31*^, #1 log(Geq/mL) | Absolute abundance Fn (F. nucleatum) (F. nucleatum; substrate 1%(w/v) in PBS): 9.41 ± 0.19 log(Geq/mL) | Absolute abundance Fn (F. nucleatum) (F. nucleatum; substrate 1 M in PBS): 7.09 ± 0.30 log(Geq/mL) | Absolute abundance S. sang. (S. sanguinis) (S. sanguinis; substrate 1%(w/v) in PBS): 8.4 ± 0.11 log(Geq/mL) | Absolute abundance S. sang. (S. sanguinis) (S. sanguinis; substrate 1 M in PBS): 8.11 ± 0.68 log(Geq/mL) | Fold Change in virulence gene expression: ABC transp. perm. ([3]; substrate 1%): 0.33 fold | Fold Change in virulence gene expression: EF-G ([3]; substrate 1%): 0.10 fold | Fold Change in virulence gene expression: but.-coA transf. ([3]; substrate 1%): 0.21 fold | Fold Change in virulence gene expression: hemin receptor ([3]; substrate 1%): 0.19 fold | Fold Change in virulence gene expression: hemolysin ([3]; substrate 1%): 0.79 fold | Fold Change in virulence gene expression: ompA ([3]; substrate 1%): 0.74 fold | Fold Change in virulence gene expression: transposase ([3]; substrate 1%): 0.98 fold | F. nucleatum hemolysin gene, upregulation ([3]; substrate 1 M): 1.9 fold | Fold Change in virulence gene expression: ABC transp. perm. ([3]; substrate 1M): 3.33 fold | Fold Change in virulence gene expression: EF-G ([3]; substrate 1M): 1.45 fold | Fold Change in virulence gene expression: but.-coA transf. ([3]; substrate 1M): 1.21 fold | Fold Change in virulence gene expression: hemin receptor ([3]; substrate 1M): 3.26 fold | Fold Change in virulence gene expression: hemolysin ([3]; substrate 1M): 1.90 fold | Fold Change in virulence gene expression: ompA ([3]; substrate 1M): 1.33 fold | Fold Change in virulence gene expression: transposase ([3]; substrate 1M): 1.27 fold | Absolute abundance S. sobrinus (S. sobrinus; substrate 1%(w/v) in PBS): 4.87 ± 0.22 log(Geq/mL) | Absolute abundance S. sobrinus (S. sobrinus; substrate 1 M in PBS): 4.16 ± 0.44 log(Geq/mL) | Absolute abundance Aa (A. actinomycetemcomitans) (A. actinomycetemcomitans; substrate 1%(w/v) in PBS): 9.11 ± 0.20 log(Geq/mL) | Absolute abundance Aa (A. actinomycetemcomitans) (A. actinomycetemcomitans; substrate 1 M in PBS): 6.6 ± 0.93 log(Geq/mL) | Absolute abundance Vp (V. parvula) (V. parvula; substrate 1%(w/v) in PBS): 9.77 ± 0.19 log(Geq/mL) | Absolute abundance Vp (V. parvula) (V. parvula; substrate 1 M in PBS): 10.57 ± 0.24 log(Geq/mL) | Fold Change in virulence gene expression: aae ([4]; substrate 1% (w/v)): 1.55 fold | Fold Change in virulence gene expression: apaH ([4]; substrate 1% (w/v)): 0.73 fold | Fold Change in virulence gene expression: cdtB ([4]; substrate 1% (w/v)): 1.05 fold | Fold Change in virulence gene expression: emaA ([4]; substrate 1% (w/v)): 0.68 fold | Fold Change in virulence gene expression: flp ([4]; substrate 1% (w/v)): 0.54 fold | Fold Change in virulence gene expression: ltxA ([4]; substrate 1% (w/v)): 0.40 fold | Fold Change in virulence gene expression: omp29 ([4]; substrate 1% (w/v)): 0.77 fold | Fold Change in virulence gene expression: omp100 ([4]; substrate 1% (w/v)): 0.71 fold | Fold Change in virulence gene expression: orf859 ([4]; substrate 1% (w/v)): 1.99 fold | Fold Change in virulence gene expression: pgA ([4]; substrate 1% (w/v)): 0.72 fold | Fold Change in virulence gene expression: vapA ([4]; substrate 1% (w/v)): 0.65 fold | Fold Change in virulence gene expression: vppA ([4]; substrate 1% (w/v)): 0.28 fold | A. actinomycetemcomitans gene expression decrease: vppA ([4]; substrate 1%(w/v)): 3.6 fold | A. actinomycetemcomitans gene expression increase: aae ([4]; substrate 1%(w/v)): 1.5 fold | A. actinomycetemcomitans gene expression increase: orf859 ([4]; substrate 1%(w/v)): 2 fold | Upregulation of A. actinomycetemcomitans expression of flp ([4]; substrate 1 M): 2.4 fold | Fold Change in virulence gene expression: aae ([4]; substrate 1M): 0.24 fold | Fold Change in virulence gene expression: apaH ([4]; substrate 1M): 0.08 fold | Fold Change in virulence gene expression: cdtB ([4]; substrate 1M): 0.04 fold | Fold Change in virulence gene expression: emaA ([4]; substrate 1M): 0.29 fold | Fold Change in virulence gene expression: flp ([4]; substrate 1M): 2.40 fold | Fold Change in virulence gene expression: ltxA ([4]; substrate 1M): 0.01 fold | Fold Change in virulence gene expression: omp29 ([4]; substrate 1M): 0.19 fold | Fold Change in virulence gene expression: omp100 ([4]; substrate 1M): 0.03 fold | Fold Change in virulence gene expression: orf859 ([4]; substrate 1M): 0.13 fold | Fold Change in virulence gene expression: pgA ([4]; substrate 1M): 11.60 fold | Fold Change in virulence gene expression: vapA ([4]; substrate 1M): 1.00 fold | Fold Change in virulence gene expression: vppA ([4]; substrate 1M): 0.49 fold | Absolute abundance S. mitis (S. mitis; substrate 1%(w/v) in PBS): < LOD | Absolute abundance S. mitis (S. mitis; substrate 1 M in PBS): <LOD
